In ChEMBL document CHEMBL1201862, “PubChem BioAssay data set” (2004):
The source made the active and inactive calls.

What was measured:
[1] = molecular target: T1, Cyclin-dependent kinase 5/CDK5 activator 1 (Homo sapiens, UniProt Q00535); test: blockade of human CDK5 activity – biochemical, cherry-picked samples, set 2, dose response (AID 504545)
[2] = molecular target: Dual specificity tyrosine-phosphorylation-regulated kinase 1A (Rattus norvegicus, UniProt Q63470); assay type: biochemical, Homo sapiens
[3] = molecular target: Glycogen synthase kinase-3 beta (Homo sapiens, UniProt P49841); test: inhibition of human GSK3B activity – biochemical, microfluidics, dry powder samples, set 2, dose response (AID 623989); assay type: functional
[4] = molecular target: Glycogen synthase kinase-3 alpha (Homo sapiens, UniProt P49840); test: GSK3A enzyme blockers, homolog specificity check – biochemical, microfluidics, dry powder samples, set 2, selectivity assay for GSK3beta inhibitor project, dose response (AID 623978); assay type: functional
[5] = molecular target: T1, Cyclin-dependent kinase 5/CDK5 activator 1; test: inhibitors of human CDK5 activity – biochemical, microfluidic mobility shift, dry powder, set 2, selectivity assay for GSK3beta inhibitor project, dose response (AID 623979); assay type: functional
[6] = viability loss in HepG2 hepatoma cells – cell-based, ATP luminescence, cherry-pick, activator set 2, cytotoxicity control, dose response (AID 1053143); assay type: functional
[7] = viability loss in THP-1 monocytes – THP-1 cells, cytotoxicity control for Vif-APOBEC3G degradation inhibitor project, dose response (AID 1117359); assay type: functional; settings: THP-1
[8] = molecular target: Protein kinase C zeta type (Homo sapiens, UniProt Q05513); assay type: functional;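 also: measured as one member of a broad kinase profiling panel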
[9] = molecular target: Eukaryotic elongation factor 2 kinase (Homo sapiens, UniProt O00418); assay type: functional
[10] = molecular target: Testis-specific serine/threonine-protein kinase 2 (Homo sapiens, UniProt Q96PF2); assay type: functional;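 also: part of the Navigating the Kinome panel, target entry STK22B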
[11] = molecular target: Cell division cycle 7-related protein kinase (Homo sapiens, UniProt O00311); assay type: functional;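 also: value obtained from a kinome-wide kinase panel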
[12] = molecular target: Protein kinase C gamma type (Homo sapiens, UniProt P05129); assay type: functional
[13] = molecular target: Proto-oncogene tyrosine-protein kinase Src (Homo sapiens, UniProt P12931); assay type: functional;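 also: SRC entry within a kinome-wide kinase profiling panel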
[14] = molecular target: Dual specificity tyrosine-phosphorylation-regulated kinase 3 (Homo sapiens, UniProt O43781); assay type: functional;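 also: measured as one member of a broad kinase panel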
[15] = molecular target: MAP kinase-activated protein kinase 3 (Homo sapiens, UniProt Q16644); assay type: functional;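 also: value comes from a kinome-wide profiling panel in which MAPKAPK3 is one of the panel members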
[16] = molecular target: G protein-coupled receptor kinase 5 (Homo sapiens, UniProt P34947); test: Navigating the Kinome. Panel member name: GPRK5; assay type: functional
[17] = molecular target: Dual specificity tyrosine-phosphorylation-regulated kinase 4 (Homo sapiens, UniProt Q9NR20); assay type: functional
[18] = molecular target: Protein-tyrosine kinase 6 (Homo sapiens, UniProt Q13882); assay type: functional
[19] = molecular target: Tyrosine-protein kinase Fyn (Homo sapiens, UniProt P06241); assay type: functional
[20] = molecular target: Cyclin-dependent kinase 1 (Homo sapiens, UniProt P06493); assay type: functional;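 also: Kinome-wide panel profiling, with the target listed as panel member CDC2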
[21] = molecular target: Lymphokine-activated killer T-cell-originated protein kinase (Homo sapiens, UniProt Q96KB5); assay type: functional;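 also: value comes from a kinase panel screen in which TOPK was one of the panel members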
[22] = molecular target: Tyrosine-protein kinase receptor UFO (Homo sapiens, UniProt P30530); assay type: functional
Sequence of Tyrosine-protein kinase receptor UFO (P30530 whole entry): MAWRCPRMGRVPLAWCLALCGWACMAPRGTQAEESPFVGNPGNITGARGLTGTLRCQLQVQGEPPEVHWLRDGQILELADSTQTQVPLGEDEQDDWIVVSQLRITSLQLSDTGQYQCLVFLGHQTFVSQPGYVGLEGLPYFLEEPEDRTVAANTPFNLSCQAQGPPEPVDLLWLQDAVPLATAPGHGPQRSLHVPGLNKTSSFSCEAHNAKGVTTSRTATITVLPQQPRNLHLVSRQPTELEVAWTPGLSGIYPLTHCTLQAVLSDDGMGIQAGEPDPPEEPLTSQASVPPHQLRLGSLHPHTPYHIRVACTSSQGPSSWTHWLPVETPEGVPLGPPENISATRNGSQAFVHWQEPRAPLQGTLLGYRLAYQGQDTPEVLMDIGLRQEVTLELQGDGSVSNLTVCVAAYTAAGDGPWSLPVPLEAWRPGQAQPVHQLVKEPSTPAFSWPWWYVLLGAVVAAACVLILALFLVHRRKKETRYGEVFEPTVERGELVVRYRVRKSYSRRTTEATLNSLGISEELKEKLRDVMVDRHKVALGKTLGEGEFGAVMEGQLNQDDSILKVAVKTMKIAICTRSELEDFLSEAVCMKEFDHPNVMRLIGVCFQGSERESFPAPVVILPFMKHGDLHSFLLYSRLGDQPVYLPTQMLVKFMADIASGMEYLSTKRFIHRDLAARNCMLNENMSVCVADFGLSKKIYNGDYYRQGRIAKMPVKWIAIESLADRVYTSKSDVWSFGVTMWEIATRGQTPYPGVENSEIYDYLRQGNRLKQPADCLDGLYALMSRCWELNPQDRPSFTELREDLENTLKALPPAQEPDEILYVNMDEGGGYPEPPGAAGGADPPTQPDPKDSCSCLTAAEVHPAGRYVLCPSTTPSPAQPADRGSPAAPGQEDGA

T1 sequence (Q00535 whole entry): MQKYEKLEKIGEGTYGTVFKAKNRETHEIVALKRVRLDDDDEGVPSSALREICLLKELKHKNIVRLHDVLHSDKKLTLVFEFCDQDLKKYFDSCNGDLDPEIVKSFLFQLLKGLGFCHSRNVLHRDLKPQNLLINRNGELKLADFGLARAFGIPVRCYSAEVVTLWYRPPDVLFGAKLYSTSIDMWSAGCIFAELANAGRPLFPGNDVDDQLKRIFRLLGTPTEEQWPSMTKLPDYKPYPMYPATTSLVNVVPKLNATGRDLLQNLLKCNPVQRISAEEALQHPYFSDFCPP
T1 sequence (Q15078 whole entry, further chain): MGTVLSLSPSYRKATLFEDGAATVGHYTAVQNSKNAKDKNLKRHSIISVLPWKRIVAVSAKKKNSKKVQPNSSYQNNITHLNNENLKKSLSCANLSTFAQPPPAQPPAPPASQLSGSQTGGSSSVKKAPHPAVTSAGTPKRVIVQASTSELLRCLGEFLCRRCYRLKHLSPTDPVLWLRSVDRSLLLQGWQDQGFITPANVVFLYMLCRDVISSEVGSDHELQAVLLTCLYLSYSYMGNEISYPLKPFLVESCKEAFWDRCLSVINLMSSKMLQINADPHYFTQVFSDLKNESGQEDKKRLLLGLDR
Sequence of Lymphokine-activated killer T-cell-originated protein kinase (Q96KB5 whole entry): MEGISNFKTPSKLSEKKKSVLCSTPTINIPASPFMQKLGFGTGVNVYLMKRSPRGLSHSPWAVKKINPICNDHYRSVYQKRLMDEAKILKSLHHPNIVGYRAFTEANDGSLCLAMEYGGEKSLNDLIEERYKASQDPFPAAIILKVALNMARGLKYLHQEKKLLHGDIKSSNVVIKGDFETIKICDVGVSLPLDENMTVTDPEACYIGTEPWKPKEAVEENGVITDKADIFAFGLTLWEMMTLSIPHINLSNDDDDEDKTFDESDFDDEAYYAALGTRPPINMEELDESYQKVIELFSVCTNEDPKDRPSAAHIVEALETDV
Sequence of Dual specificity tyrosine-phosphorylation-regulated kinase 4 (Q9NR20 whole entry): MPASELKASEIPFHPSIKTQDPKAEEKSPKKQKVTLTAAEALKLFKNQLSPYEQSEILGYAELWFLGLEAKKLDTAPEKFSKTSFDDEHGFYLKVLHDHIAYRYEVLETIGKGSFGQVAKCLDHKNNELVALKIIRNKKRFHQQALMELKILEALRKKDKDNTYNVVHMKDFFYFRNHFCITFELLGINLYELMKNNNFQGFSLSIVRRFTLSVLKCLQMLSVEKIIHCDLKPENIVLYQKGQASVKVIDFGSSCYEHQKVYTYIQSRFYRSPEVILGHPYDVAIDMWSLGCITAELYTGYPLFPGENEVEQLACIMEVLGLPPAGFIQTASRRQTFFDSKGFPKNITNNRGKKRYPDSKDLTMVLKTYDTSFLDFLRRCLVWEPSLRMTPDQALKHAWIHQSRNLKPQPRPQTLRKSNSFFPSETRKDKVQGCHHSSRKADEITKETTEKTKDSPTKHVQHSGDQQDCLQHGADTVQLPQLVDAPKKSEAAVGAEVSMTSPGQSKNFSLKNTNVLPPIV
Sequence of Dual specificity tyrosine-phosphorylation-regulated kinase 3 (O43781 whole entry): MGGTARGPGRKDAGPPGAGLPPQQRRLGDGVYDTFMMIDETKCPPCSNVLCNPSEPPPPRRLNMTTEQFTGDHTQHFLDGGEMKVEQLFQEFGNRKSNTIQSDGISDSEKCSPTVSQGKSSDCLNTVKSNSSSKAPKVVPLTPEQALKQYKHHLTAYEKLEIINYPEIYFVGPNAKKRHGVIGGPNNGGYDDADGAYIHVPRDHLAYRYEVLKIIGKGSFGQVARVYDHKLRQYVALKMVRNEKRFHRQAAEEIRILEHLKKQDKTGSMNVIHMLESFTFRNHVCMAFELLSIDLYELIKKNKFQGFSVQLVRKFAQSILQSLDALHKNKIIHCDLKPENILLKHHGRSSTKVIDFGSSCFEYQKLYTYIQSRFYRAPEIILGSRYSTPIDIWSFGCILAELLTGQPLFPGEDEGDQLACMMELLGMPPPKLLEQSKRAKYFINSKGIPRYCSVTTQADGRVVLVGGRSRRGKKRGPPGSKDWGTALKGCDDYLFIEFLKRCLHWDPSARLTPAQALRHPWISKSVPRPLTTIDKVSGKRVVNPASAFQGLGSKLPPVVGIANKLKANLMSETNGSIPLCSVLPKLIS
Sequence of Glycogen synthase kinase-3 alpha (P49840 whole entry): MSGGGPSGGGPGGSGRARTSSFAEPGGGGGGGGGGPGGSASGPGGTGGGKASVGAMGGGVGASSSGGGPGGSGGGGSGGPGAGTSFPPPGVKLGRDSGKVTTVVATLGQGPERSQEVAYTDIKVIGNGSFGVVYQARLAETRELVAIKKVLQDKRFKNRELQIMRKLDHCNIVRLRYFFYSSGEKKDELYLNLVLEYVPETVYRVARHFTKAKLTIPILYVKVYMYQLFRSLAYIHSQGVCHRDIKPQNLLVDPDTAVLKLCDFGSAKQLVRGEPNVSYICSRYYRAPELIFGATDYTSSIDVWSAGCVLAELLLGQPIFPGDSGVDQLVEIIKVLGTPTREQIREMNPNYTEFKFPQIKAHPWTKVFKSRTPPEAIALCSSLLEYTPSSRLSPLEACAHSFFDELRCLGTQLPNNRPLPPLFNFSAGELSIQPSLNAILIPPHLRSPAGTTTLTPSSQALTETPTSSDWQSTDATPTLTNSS
Sequence of Testis-specific serine/threonine-protein kinase 2 (Q96PF2 whole entry): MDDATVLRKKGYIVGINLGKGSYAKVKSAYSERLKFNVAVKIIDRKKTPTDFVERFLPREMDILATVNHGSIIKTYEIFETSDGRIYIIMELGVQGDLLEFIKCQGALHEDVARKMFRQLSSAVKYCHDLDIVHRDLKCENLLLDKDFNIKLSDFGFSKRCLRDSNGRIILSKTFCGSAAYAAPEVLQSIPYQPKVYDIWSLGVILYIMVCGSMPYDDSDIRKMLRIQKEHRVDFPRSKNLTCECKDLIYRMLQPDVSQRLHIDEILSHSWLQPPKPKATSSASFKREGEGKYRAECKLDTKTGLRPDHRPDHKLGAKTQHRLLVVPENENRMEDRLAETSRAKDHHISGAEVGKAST
Sequence of Cyclin-dependent kinase 1 (P06493 whole entry): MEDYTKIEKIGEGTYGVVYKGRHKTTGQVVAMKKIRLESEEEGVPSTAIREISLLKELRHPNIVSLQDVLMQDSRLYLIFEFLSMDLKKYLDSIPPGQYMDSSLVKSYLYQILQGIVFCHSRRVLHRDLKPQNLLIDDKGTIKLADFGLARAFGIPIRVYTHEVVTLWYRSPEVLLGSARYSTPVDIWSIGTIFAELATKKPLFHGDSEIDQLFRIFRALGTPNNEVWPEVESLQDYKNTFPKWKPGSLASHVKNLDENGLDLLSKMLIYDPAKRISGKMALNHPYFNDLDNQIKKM

With `Nc1nc(Nc2ccccc2)sc1C(=O)c1ccccc1` the AC50 [1] was 2.27 µM (active), the AC50 [2] was 0.811 µM (active) and the AC50 [3] was 0.036 µM (active). For the same compound, the AC50 [4] was 0.168 µM (active), the AC50 [5] was 0.19 µM (active) and the AC50 [6] was 18.9 µM (active). The CC50 [7] was 14 µM (active).
In the case of `COc1cc2c(Oc3ccc4[nH]c(C)cc4c3F)ncnc2cc1OCCCN1CCCC1` [CEDIRANIB], the Ki [8] is reported as > 7.94 µM (inactive), the Ki [9] is reported as > 3.98 µM (inactive) and the Ki [10] is reported as > 1.58 µM (inactive). The Ki [11] was > 1.26 µM (inactive), the Ki [12] was > 7.94 µM (inactive) and the Ki [13] was 0.0501 µM (active). For the same compound, the Ki [14] was > 6.31 µM (inactive), the Ki [15] was > 10 µM (inactive) and the Ki [16] was > 3.98 µM (inactive). The Ki [17] was > 7.94 µM (inactive), the Ki [18] was 0.0398 µM (active) and the Ki [19] was 0.501 µM (active). For the same compound, the Ki [20] was > 7.94 µM (inactive), the Ki [21] was > 10 µM (inactive) and the Ki [22] was 0.316 µM (active).
